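Dose response: 5 concentrations. Exposure: 48 h. Format: 96-well plates. Endpoint: linear interpolation; highest concentration if not reached. GI50 is the concentration that inhibits growth by half. Definition used: TGI = concentration required for complete inhibition of growth.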
Tests used:
Experiment in all cases: growth of human tumour cells (NCI), 48 h
[1] = test system: A549 NSCLC
[2] = test system: NCI-H226 lung
[3] = test system: SR leukemia
[4] = test system: MDA-MB-435
[5] = test system: EKVX NSCLC
[6] = test system: SN12C renal
[7] = test system: SF-268 CNS
[8] = test system: HT29 colon
[9] = test system: OVCAR-4 ovarian
[10] = test system: COLO 205 colon
[11] = test system: NCI-H460 lung
[12] = test system: BT-549 breast
[13] = test system: MALME-3M melanoma
[14] = test system: SF-295 CNS
[15] = test system: RXF 393 renal
[16] = test system: SW-620 colon
[17] = test system: SNB-75 CNS
[18] = test system: 786-0 renal
[19] = test system: LOX IMVI melanoma
[20] = test system: OVCAR-5 ovarian
[21] = test system: U251 CNS
[22] = test system: SK-MEL-28 melanoma
[23] = test system: HCT-15 colon
[24] = test system: T-47D breast
[25] = test system: RPMI-8226 leukemia
[26] = test system: SK-OV-3 ovarian
[27] = test system: DU-145 prostate
[28] = test system: IGROV1 ovarian
[29] = test system: SF-539 CNS
[30] = test system: M14 melanoma
[31] = test system: SNB-19 CNS
[32] = test system: HCT-116 colon
[33] = test system: MDA-MB-231 breast
[34] = test system: NCI/ADR-RES ovarian
[35] = test system: MOLT-4 leukemia
[36] = test system: SK-MEL-2 melanoma
[37] = test system: NCI-H23 lung
[38] = test system: HL-60(TB) leukemia
[39] = test system: HCC-2998 colon
[40] = test system: HS 578T breast
[41] = test system: K-562 leukemia
[42] = test system: UACC-62 melanoma
[43] = test system: UACC-257 melanoma
[44] = test system: KM12 colon
[45] = test system: NCI-H522 lung
[46] = test system: OVCAR-3 ovarian
[47] = test system: UO-31 renal
[48] = test system: HOP-92 NSCLC
[49] = test system: CAKI-1 renal
[50] = test system: HOP-62 NSCLC
[51] = test system: SK-MEL-5 melanoma
[52] = test system: OVCAR-8 ovarian
[53] = test system: ACHN renal
[54] = test system: CCRF-CEM leukemia
[55] = test system: PC-3 prostate
[56] = test system: TK-10 renal
[57] = test system: A498 renal
[58] = test system: MCF7 breast

## O=C1/C(=C/c2cccc([N+](=O)[O-])c2)COc2ccc(O)cc21
[1]
  GI50: 4.66 µM
  TGI: 16.8 µM
[2]
  GI50: 2.19 µM
  TGI: 5.23 µM
[3]
  GI50: 0.278 µM
  TGI: 1.18 µM
[4]
  GI50: 1.91 µM
  TGI: 4.05 µM
[5]
  GI50: 3.86 µM
  TGI: 13.7 µM
[6]
  GI50: 1.79 µM
  TGI: 3.47 µM
[7]
  GI50: 2.86 µM
  TGI: 10.3 µM
[8]
  GI50: 1.92 µM
  TGI: 4.58 µM
[9]
  GI50: 3.3 µM
  TGI: 11.1 µM
[10]
  GI50: 1.58 µM
  TGI: 3.27 µM
[11]
  GI50: 2.69 µM
  TGI: 6.65 µM
[12]
  GI50: 2.19 µM
  TGI: 4.46 µM
[13]
  GI50: 2.37 µM
  TGI: 6.75 µM
[14]
  GI50: 6.94 µM
  TGI: 19.8 µM
[15]
  GI50: 1.73 µM
  TGI: 3.28 µM
[16]
  GI50: 0.521 µM
  TGI: 2.08 µM
[17]
  GI50: 2.63 µM
  TGI: 14.9 µM
[18]
  GI50: 1.85 µM
  TGI: 3.83 µM
[19]
  GI50: 1.49 µM
  TGI: 2.92 µM
[20]
  GI50: 2.11 µM
  TGI: 4.76 µM
[21]
  GI50: 1.56 µM
  TGI: 2.9 µM
[22]
  GI50: 2.02 µM
  TGI: 4.24 µM
[23]
  GI50: 1.7 µM
  TGI: 3.49 µM
[24]
  GI50: 2.24 µM
  TGI: 6.3 µM
[25]
  GI50: 0.236 µM
  TGI: 0.604 µM
[26]
  GI50: 4.64 µM
  TGI: 15.9 µM
[27]
  GI50: 2 µM
  TGI: 4.26 µM
[28]
  GI50: 1.73 µM
  TGI: 3.34 µM
[29]
  GI50: 1.87 µM
  TGI: 3.73 µM
[30]
  GI50: 1.72 µM
  TGI: 3.54 µM
[31]
  GI50: 1.96 µM
  TGI: 3.97 µM
[32]
  GI50: 1.19 µM
  TGI: 2.82 µM
[33]
  GI50: 2.07 µM
  TGI: 4.75 µM
[34]
  GI50: 2.93 µM
  TGI: 10.8 µM
[35]
  GI50: 2.05 µM
  TGI: 5.83 µM
[36]
  GI50: 2.1 µM
  TGI: 5.3 µM
[37]
  GI50: 2.02 µM
  TGI: 4.64 µM
[38]
  GI50: 1.69 µM
  TGI: 4.03 µM
[39]
  GI50: 1.75 µM
  TGI: 3.21 µM
[40]
  GI50: 3 µM
  TGI: 9.4 µM
[41]
  GI50: 0.506 µM
  TGI: 11.8 µM
[42]
  GI50: 1.92 µM
  TGI: 4.03 µM
[43]
  GI50: 2.37 µM
  TGI: 6.66 µM
[44]
  GI50: 1.68 µM
  TGI: 3.32 µM
[45]
  GI50: 1.47 µM
  TGI: 3.02 µM
[46]
  GI50: 1.71 µM
  TGI: 3.13 µM
[47]
  GI50: 1.51 µM
  TGI: 2.93 µM
[48]
  GI50: 2.51 µM
  TGI: 7.89 µM
[49]
  GI50: 1.78 µM
  TGI: 3.58 µM
[50]
  GI50: 3.21 µM
  TGI: 12.1 µM
[51]
  GI50: 1.8 µM
  TGI: 3.37 µM
[52]
  GI50: 2.67 µM
  TGI: 9.52 µM
[53]
  GI50: 1.75 µM
  TGI: 3.21 µM
[54]
  GI50: 0.408 µM
  TGI: 1.85 µM
[55]
  GI50: 2.15 µM
  TGI: 5.45 µM
[56]
  GI50: 2.77 µM
  TGI: 9.11 µM
[57]
  GI50: 3.35 µM
  TGI: 13.4 µM

## Cn1cc(C2=C(c3cn(C)c4ncccc34)C(=O)NC2=O)c2ccccc21
[1]
  GI50: 10.1 µM
  TGI: > 25 µM
[2]
  GI50: 5.45 µM
  TGI: 16.5 µM
[4]
  GI50: 2.2 µM
  TGI: > 25 µM
[6]
  GI50: 6.9 µM
  TGI: > 25 µM
[7]
  GI50: 9.13 µM
  TGI: > 25 µM
[8]
  GI50: 6.47 µM
  TGI: > 24.1 µM
[9]
  GI50: 17.8 µM
  TGI: > 25 µM
[10]
  GI50: 5.23 µM
  TGI: 13 µM
[11]
  GI50: 9.96 µM
  TGI: > 25 µM
[12]
  GI50: 6.97 µM
  TGI: 22.2 µM
[13]
  GI50: 8.5 µM
  TGI: 20 µM
[14]
  GI50: 7.18 µM
  TGI: > 25 µM
[15]
  GI50: 3.8 µM
  TGI: 10.7 µM
[16]
  GI50: 9.7 µM
  TGI: > 25 µM
[17]
  GI50: 0.669 µM
  TGI: > 23.6 µM
[18]
  GI50: 8.72 µM
  TGI: > 25 µM
[19]
  GI50: 6.97 µM
  TGI: > 25 µM
[20]
  GI50: 10.4 µM
  TGI: > 25 µM
[21]
  GI50: 7.27 µM
  TGI: > 25 µM
[22]
  GI50: 8.56 µM
  TGI: > 25 µM
[58]
  GI50: 7.66 µM
  TGI: > 25 µM
[23]
  GI50: 7.34 µM
  TGI: > 25 µM
[24]
  GI50: 7.56 µM
  TGI: > 23.5 µM
[25]
  GI50: 9.04 µM
  TGI: > 23.2 µM
[26]
  GI50: 6.97 µM
  TGI: 21.7 µM
[27]
  GI50: 13.1 µM
  TGI: > 25 µM
[28]
  GI50: 15.5 µM
  TGI: > 25 µM
[29]
  GI50: 5.35 µM
  TGI: 14.3 µM
[30]
  GI50: 9.74 µM
  TGI: > 25 µM
[31]
  GI50: 11.2 µM
  TGI: > 25 µM
[32]
  GI50: 8.39 µM
  TGI: > 25 µM
[33]
  GI50: 12.2 µM
  TGI: > 25 µM
[34]
  GI50: 11.5 µM
  TGI: > 25 µM
[35]
  GI50: 7.54 µM
  TGI: > 24 µM
[36]
  GI50: 6.31 µM
  TGI: 12.8 µM
[37]
  GI50: 14.3 µM
  TGI: > 25 µM
[38]
  GI50: 7.85 µM
  TGI: 20.1 µM
[39]
  GI50: > 21.2 µM
  TGI: > 25 µM
[40]
  GI50: 4.17 µM
  TGI: > 19.1 µM
[41]
  GI50: 6.99 µM
  TGI: > 25 µM
[42]
  GI50: 11.7 µM
  TGI: > 25 µM
[43]
  GI50: 12.8 µM
  TGI: > 25 µM
[44]
  GI50: 8.59 µM
  TGI: > 25 µM
[45]
  GI50: 10.2 µM
  TGI: > 25 µM
[46]
  GI50: 9.93 µM
  TGI: > 25 µM
[47]
  GI50: 5.68 µM
  TGI: > 19.8 µM
[48]
  GI50: 7.71 µM
  TGI: > 22.9 µM
[49]
  GI50: 4.79 µM
  TGI: > 17.2 µM
[50]
  GI50: 10.9 µM
  TGI: > 25 µM
[51]
  GI50: 6.27 µM
  TGI: > 17.6 µM
[52]
  GI50: 10.1 µM
  TGI: > 25 µM
[53]
  GI50: 7.03 µM
  TGI: > 25 µM
[54]
  GI50: 8.41 µM
  TGI: > 22.9 µM
[55]
  GI50: 8.27 µM
  TGI: > 25 µM
[56]
  GI50: 10.8 µM
  TGI: > 25 µM
[57]
  GI50: 3.73 µM
  TGI: 11 µM

From PubChem BioAssay (NCI)
